Where a name gives a salt, the structure may show the parent alone.
Key:
[1] = system: excretion of phenol red from the mouse trachea; assay: Excretion amount of phenol red from the mouse trachea (expectorant effects); format: in vivo, mice; conditions: trachea wash in 2 mL 5% NaHCO3, absorbance at 546 nm, n = 10
Description: 2.3 Effects on the Excretion Amount of Phenol Red from the Mouse Trachea (Expectorant Effects)
40 mice were taken and randomly divided into 4 groups as described in 2.1. The positive control group received ambroxol hydrochloride tablets at 20 mg/kg. After the mice were acclimatized for 3 days, they were administered intragastrically once a day continuously for 7 days. The administration volume was 20 mL/kg, and 30 min after the last administration, each mouse was intraperitoneally injected with 5% phenol red solution at 0.2 mL/20 g, sacrificed after 30 min, fixed supine, neck straightened, surrounding connective tissue stripped to expose the trachea, and dissected to separate out a section of trachea that was from below the thyroid cartilage to the bifurcation of the trachea. Each trachea section was put into a test tube pre-filled with 2 mL of 5% NaHCO3 solution, ultrasonically washed for 15 min to release the tracheal phenol red out from the trachea completely, and centrifuged at 1000 r/min for 15 min to obtain a supernatant. The absorbance values of the supernatant at 546 nm were measured by an enzyme reader, and converted into the phenol red content by being compared with standard curves of phenol red.
(§1) Experimental data were analyzed using SPSS17.0 software, and expressed as means±standard deviations (x±SD). When the homogeneity of variance was complied, LSD test was used to make comparison between groups; and when the homogeneity of variance was not complied, Dunnett's T3 test was used to make comparison between groups. A P-value less than 0.05 means a statistical significance, and a P-value less than 0.01 means a significant statistical significance.

[2] = system: allergic asthma in guinea pigs; assay: Allergic asthma in guinea pigs (egg protein sensitisation and spray); format: in vivo; conditions: 1% egg protein spray, capped at 6 min
Description: 2.4 Effects on the Allergic Asthma in Guinea Pigs (Effects for Relieving Asthma)
40 guinea pigs, male and female each in half, having body weight of 250-280 g, were randomly divided into 4 groups as described in 2.1. The positive control group received aminophylline tablets at 100 mg/kg. After the guinea pigs were acclimatized for 3 days, they received 10% fresh egg protein solution at 10 mL/kg through an intraperitoneal injection. From the 15th day, it began to administer intragastrically to each group at 10 mL/kg. The negative control group received equal volume of 0.5% CMC-Na once per day continuously for 7 days. From the 17th day, it began to let the guinea pigs inhale 1% egg protein solution, by spraying through an asthma-inducing, for 15 min to elicit at 1-day intervals totally for 3 times. After the last irritation, the asthma latency in the guinea pigs, that is, the time from the beginning of spray to asthma attacks (cough, dyspnea, restlessness, convulsions, falling down or death), was recorded. For the guinea pigs which had not appeared asthma attack after 6 min, their latency was taken as 6 min.
as §1

[3] = system: cough response of mice induced by concentrated ammonia; assay: Cough response of mice induced by concentrated ammonia (antitussive effects); format: in vivo; conditions: n = 10; for Number of coughs per 2 min: 25% ammonia spray; for Latency: cough latency, 25% ammonia spray 15 s, 1 h after last dose
Description: 2.1 Effects on the Cough Response of Mice Induced by Concentrated Ammonia (Antitussive Effects)
40 mice were taken and randomly divided into four groups, namely a negative control group (0.5% of CMC-Na: prepared before tests by weighting 5 g of CMC-Na into a beaker, adding 800 mL pure water thereto, stirring, heating, boiling, and cooling down, then using a measuring cylinder to adjust the volume to 1000 mL, to obtain the transparent, viscous liquid with a concentration of 0.5% for the preparation of test samples and solvent control. Such liquid prepared once and can be used for 5-7 days); a positive control group of codeine phosphate tablets at 60 mg/kg; Trezastilbenoside high dose (300 mg/kg) group; and Trezastilbenoside low dose (150 mg/kg) group. For each administration group, 0.5% CMC-Na was used for dissolving and diluting to a corresponding concentration. After the mice were accilimatized for 3 days, they were administered intragastrically once a day continuously for 7 days. The administration volume was 20 mL/kg, and 1 h after the last administration, the mice were placed one by one into a closed and dry container where the mist of 25% of concentrated ammonia was introduced into by spraying at constant pressure for 15 seconds to induce cough, then the cough latency and the number of coughs in mice during the 2-minute period were recorded thought observation.
as §1

[4] = system: cough in guinea pigs induced by citric acid spray; assay: Cough in guinea pigs induced by citric acid spray (antitussive effects); format: in vivo; conditions: n = 10; for Number of coughs per 5 min: 17.5% citric acid spray; for Latency: cough latency, 17.5% citric acid spray 1 min, latency capped at 5 min
Description: 2.2 Effects on the Cough in Guinea Pigs Induced by Citric Acid Spray (Antitussive Effects)
Healthy and sensitive guinea pigs (a pre-selection was carried out one day before the experiments, to exclude the guinea pigs which coughed less than 10 times during the five-minute period), having body weight of 250-280 g, male and female each in half were taken, and randomly divided into groups as described in 2.1. After the guinea pigs were acclimatized for 3 days, they were administered intragastrically once a day continuously for 5 days, and at the fifth day 1 hour after the administration, the guinea pigs were placed inside a 3 L sealed glass bell jar where 17.5% citric acid was sprayed into at constant pressure for 1 minute by an ultrasonic nebulizer. The cough latency and the number of coughs of the guinea pigs during the 5-minute period were recorded though observation. For guinea pigs whose latency exceeded 5 min, it was recorded as 5 min.
as §1

[5] = system: ears swelling of mice induced by xylene; assay: Ears swelling of mice induced by xylene (anti-inflammatory effects); format: in vivo; conditions: for Swelling degree: xylene 20 μL on right ear, 30 min, weight difference of 6 mm ear pieces
Description: 2.5 Effects on Ears Swelling of Mice Induced by Xylene (Anti-Inflammatory Effects)
40 mice were taken and randomly divided into 4 groups of 10 mice each as described in 2.1, in which intragastric administration was conducted at 10 mL/kg, the positive control group received dexamethasone acetate tablets at 5 mg/kg, and the negative control group received equal volume of 0.5% CMC-Na, once per day continuously for 7 days. At the night before the experiments, the mice were fasted but had access to water for 12 h. At the 7th day, 30 min after the administration, the mice were evenly smeared with the inflammatory agent xylene (20 μL for each mouse) at the front and back sides of right ears to cause inflammation, and killed by cervical dislocation after 30 min, with their both ears cut along the baseline of the auricle. The ear pieces of the same part of the both ears were punched out with a hole punch of 6 mm diameter, and weighted by an analytical balance. The difference between the weights of the two ears was the swelling degree (mg), and the swelling inhibition rate (%) was calculated. Swelling inhibition rate=(Average swelling degree of the control group−Average swelling degree of the administration group)/Average swelling degree of the control group 2.6 Statistical Methods:
as §1

[6] = safety researches, background statement; cited from earlier work
[7] = safety researches, background statement; cited from earlier work; remark: listed apart in the source
[8] = 60 mg/kg intragastric once a day for 7 days
[9] = 60 mg/kg intragastric once a day for 5 days
[10] = 150 mg/kg intragastric once a day for 7 days
[11] = 300 mg/kg intragastric once a day for 7 days
[12] = 150 mg/kg intragastric once a day for 5 days
[13] = 300 mg/kg intragastric once a day for 5 days
[14] = 150 mg/kg intragastric once per day for 7 days
[15] = 300 mg/kg intragastric once per day for 7 days

Work on Nc1c(Br)cc(Br)cc1CN[C@H]1CC[C@H](O)CC1 [Ambroxol hydrochloride tablet, Ambroxol hydrochloride, reference compound] yielded a Phenol red concentration ([1]; ambroxol hydrochloride 20 mg/kg (positive control) intragastric once a day for 7 days) of 4.23 ± 1.34 µg/mL.

With Cn1c(=O)c2[nH]cnc2n(C)c1=O [Aminophylline tablet, Aminophylline, reference compound] the “Latency” value ([2]; 100 mg/kg intragastric once per day for 7 days) was 94.23 ± 31.55 s.

With COc1ccc2c3c1O[C@H]1[C@@H](O)C=C[C@H]4[C@@H](C2)N(C)CC[C@@]341 [Codeine phosphate tablets, Codeine phosphate, reference compound] the “Number of coughs per 2 min” value [3, 8] was 15.13 ± 7.83, the “Latency” value [3, 8] was 56.23 ± 16.46 s and the “Number of coughs per 5 min” value [4, 9] was 7.83 ± 3.83. For the same compound, the “Latency” value [4, 9] was 130.48 ± 59.34 s.

With CC(=O)OCC(=O)[C@@]1(O)[C@H](C)C[C@H]2[C@@H]3CCC4=CC(=O)C=C[C@]4(C)[C@@]3(F)[C@@H](O)C[C@@]21C [Dexamethasone acetate tablet, Dexamethasone acetate, reference compound] the “Swelling degree” value ([5]; 5 mg/kg intragastric once per day for 7 days) was 1.24 ± 0.67 mg and the inhibition at 5 mg/kg ([5]; Mus musculus, po, 168 h, 5 mg/kg intragastric once per day for 7 days, relative to average swelling degree of control group, read-out: Swelling inhibition rate (%)) was 65.9%.

In the case of OC[C@H]1O[C@@H](Oc2cc(/C=C/c3cc(O)cc(O)c3)ccc2O)[C@H](O)[C@@H](O)[C@@H]1O [Trezastilbenoside], the “Number of coughs per 2 min” value [3, 10] is reported as 25.88 ± 9.25, the “Number of coughs per 2 min” value [3, 11] is reported as 19.63 ± 10.27 and the “Latency” value [3, 10] is reported as 41.23 ± 13.67 s. The “Latency” value [3, 11] was 48.56 ± 16.53 s, the “Number of coughs per 5 min” value [4, 12] was 13.88 ± 5.25 and the “Number of coughs per 5 min” value [4, 13] was 9.63 ± 3.20. For the same compound, the “Latency” value [4, 12] was 104.35 ± 45.23 s, the “Latency” value [4, 13] was 116.78 ± 53.96 s and the Phenol red concentration [1, 10] was 3.28 ± 1.20 µg/mL. For the same compound, the Phenol red concentration [1, 11] was 3.88 ± 1.43 µg/mL, the “Latency” value [2, 14] was 69.28 ± 21.20 s and the “Latency” value [2, 15] was 83.68 ± 36.13 s. For the same compound, the “Swelling degree” value [5, 14] was 3.12 ± 2.52 mg, the “Swelling degree” value [5, 15] was 2.21 ± 1.45 mg and the inhibition at 150 mg/kg ([5]; Mus musculus, po, 168 h, 150 mg/kg intragastric once per day for 7 days, relative to average swelling degree of control group, read-out: Swelling inhibition rate (%)) was 14.3%. For the same compound, the inhibition at 300 mg/kg ([5]; Mus musculus, po, 168 h, 300 mg/kg intragastric once per day for 7 days, relative to average swelling degree of control group, read-out: Swelling inhibition rate (%)) was 39.3%, the “Toxic side reactions and death in acute toxicity tests” value [6] was “no toxic side reactions and death occurred” and the “Chromosome aberrations or mutagenesis in the genetic test” value [7] was “no chromosome aberrations or mutagenesis were found”.
